Test results: US10894784B2, “Heteroarylbenzimidazole compounds” (BAYER PHARMA AKTIENGESELLSCHAFT, priority 2015, dated 2021)

Biological target: TBK1 (Homo sapiens (Human), UniProt Q9UHD2)
Assay: TBK1 low ATP kinase assay (in vitro assay 1)
Assay type: biochemical
Details: in vitro assay 1, read-out: TBK1 low ATP kinase assay IC50

Chain of TBK1 (Q9UHD2 whole entry): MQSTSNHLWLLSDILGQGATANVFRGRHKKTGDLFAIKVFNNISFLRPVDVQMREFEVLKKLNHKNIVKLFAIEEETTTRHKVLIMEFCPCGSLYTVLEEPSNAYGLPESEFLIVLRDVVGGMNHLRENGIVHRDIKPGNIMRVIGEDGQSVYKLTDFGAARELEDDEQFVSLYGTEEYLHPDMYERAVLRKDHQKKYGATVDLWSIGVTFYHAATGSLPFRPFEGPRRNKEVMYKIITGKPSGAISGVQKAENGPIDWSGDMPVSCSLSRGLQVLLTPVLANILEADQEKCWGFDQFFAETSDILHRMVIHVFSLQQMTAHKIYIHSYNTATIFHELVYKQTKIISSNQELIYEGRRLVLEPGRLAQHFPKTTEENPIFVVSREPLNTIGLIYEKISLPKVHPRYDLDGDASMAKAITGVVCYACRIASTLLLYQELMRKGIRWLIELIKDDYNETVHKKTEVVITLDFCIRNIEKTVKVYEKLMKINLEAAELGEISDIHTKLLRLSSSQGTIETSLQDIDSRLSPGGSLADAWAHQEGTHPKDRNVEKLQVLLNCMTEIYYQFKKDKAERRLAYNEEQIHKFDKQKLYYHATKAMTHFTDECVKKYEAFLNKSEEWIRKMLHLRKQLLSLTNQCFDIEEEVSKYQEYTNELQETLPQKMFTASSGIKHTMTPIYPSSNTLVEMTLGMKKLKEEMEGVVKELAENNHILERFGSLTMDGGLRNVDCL

Row | Compound | IC50 [nM]
1 | COc1cncnc1-c1ccc2nc(Nc3cc(C(C)N4CCN(C(=O)CC5CC5)CC4)ccn3)[nH]c2c1 (single isomer, unassigned) [Example 35.03.02.B, 2-cyclopropyl-1-{4-[(1S or 1R)-1-(2-{[6-(5-methoxypyrimidin-4-yl)-1H-benzimidazol-2-yl]amino}pyridin-4-yl)ethyl]piperazin-1-yl}ethanone] | 32.8
2 | CN(C)c1cc(-c2ccc3nc(Nc4cc(CN5CCN(C(=O)CC(F)(F)F)CC5)ccn4)[nH]c3c2)ccn1 [Example 135.02, 1-(4-{[2-({6-[2-(dimethylamino)pyridin-4-yl]-1H-benzimidazol-2-yl)amino)pyridin-4-yl]methyl}piperazin-1-yl)-3,3,3-trifluoropropan-1-one] | 23
3 | CC1CC1Cn1cc(-c2ccc3nc(Nc4cc(C(C)N5CCN(C(=O)OC(C)(C)C)CC5)ccn4)[nH]c3c2)cn1 (single isomer, unassigned) [Example 56.01, tert-butyl 4-[(1R or 1S)-1-(2-{[6-(1-{[(1RS,2RS)-2-methylcyclopropyl]methyl}-1H-pyrazol-4-yl)-1H-benzimidazol-2-yl]amino}pyridin-4-yl)ethyl]piperazine-1-carboxylate] | 16.5
4 | COc1cnc(OCC2CC2)nc1-c1ccc2nc(Nc3cc(CN4CCN(C(=O)C5CC5)CC4)ccn3)[nH]c2c1 [Example 64.01.02, cyclopropyl(4-{[2-({6-[2-(cyclopropylmethoxy)-5-methoxypyrimidin-4-yl]-1H-benzimidazol-2-yl}amino)pyridin-4-yl]methyl}piperazin-1-yl)methanone] | 33.7
5 | COc1c(-c2ccc3nc(Nc4cc(C(C)N5CCN(C(=O)C6CC6)CC5)ccn4)[nH]c3c2)ncnc1N1CCCC1 (single isomer, unassigned) [Example 112.02, cyclopropyl(4-{(1R or 1S)-1-[2-({6-[5-methoxy-6-(pyrrolidin-1-yl)pyrimidin-4-yl]-1H-benzimidazol-2-yl}amino)pyridin-4-yl]ethyl}piperazin-1-yl)methanone] | 1.3
6 | CC(c1ccnc(Nc2nc3ccc(-c4cc(C(F)F)ncn4)cc3[nH]2)c1)N1CCN(C(=O)OC(C)(C)C)CC1 (single isomer, unassigned) [Example 174.01, tert-butyl 4-{(1R or 1S)-1-[2-({6-[6-(difluoromethyl)pyrimidin-4-yl]-1H-benzimidazol-2-yl}amino)pyridin-4-yl]ethyl}piperazine-1-carboxylate] | 11.1
7 | COCc1cc(-c2ccc3nc(Nc4cc(C(C)N5CCN(C(=O)CC(F)(F)F)CC5)ccn4)[nH]c3c2Cl)ncn1 (single isomer, unassigned) [Example 99.01, 1-(4-{(1R or 1S)-1-[2-({7-chloro-6-[6-(methoxymethyl)pyrimidin-4-yl]-1H-benzimidazol-2-yl}amino)pyridin-4-yl]ethyl}piperazin-1-yl)-3,3,3-trifluoropropan-1-one] | 33
8 | CC(c1ccnc(Nc2nc3ccc(-c4cnn(CC5CC(F)(F)C5)c4)cc3[nH]2)c1)N1CCN(C(=O)C2CC2)CC1 (single isomer, unassigned) [Example 169.03, cyclopropyl{4-[(1R or 1S)-1-{2-[(6-{1-[(3,3-difluorocyclobutyl)methyl]-1H-pyrazol-4-yl}-1H-benzimidazol-2-yl)amino]pyridin-4-yl}ethyl]piperazin-1-yl}methanone] | 16.6
9 | CC(c1ccnc(Nc2nc3ccc(-c4cnn(CC(F)F)c4)cc3[nH]2)c1)N1CCN(C(=O)C2CC2)CC1 (single isomer, unassigned) [Example 87.02, cyclopropyl(4-{(1R or 1S)-1-[2-({6-[1-(2,2-difluoroethyl)-1H-pyrazol-4-yl]-1H-benzimidazol-2-yl}amino)pyridin-4-yl]ethyl}piperazin-1-yl)methanone] | 2
10 | Cc1cc(-c2ccc3nc(Nc4cc(CN5CCN(C(=O)CC(F)(F)F)CC5)ccn4)[nH]c3c2)ccn1 [Example 01.03, 3,3,3-trifluoro-1-{4-[(2-{[6-(2-methylpyridin-4-yl)-1H-benzimidazol-2-yl]amino}pyridin-4-yl)methyl]piperazin-1-yl}propan-1-one] | 53.5
11 | CC(c1ccnc(Nc2nc3ccc(-c4cn[nH]c4)cc3[nH]2)c1)N1CCN(C(=O)OC(C)(C)C)CC1 (single isomer, unassigned) [Example 57.01, tert-butyl 4-[(1R or 1S)-1-(2-{[6-(1H-pyrazol-4-yl)-1H-benzimidazol-2-yl]amino}pyridin-4-yl)ethyl]piperazine-1-carboxylate] | 7.83
12 | COc1c(-c2ccc3nc(Nc4cc(C(C)N5CCN(C(=O)OC(C)(C)C)CC5)ccn4)[nH]c3c2)ncnc1N1CCCC1 (single isomer, unassigned) [Example 112.01, tert-butyl 4-{(1R or S)-1-[2-({6-[5-methoxy-6-(pyrrolidin-1-yl)pyrimidin-4-yl]-1H-benzimidazol-2-yl}amino)pyridin-4-yl]ethyl}piperazine-1-carboxylate] | 8.2
13 | CC(c1ccnc(Nc2nc3ccc(-c4cnn(CC5CCC5)c4)c(Cl)c3[nH]2)c1)N1CCN(C(=O)C2CC2)CC1 (single isomer, unassigned) [Example 75.03, (4-{(1R or 1S)-1-[2-({7-chloro-6-[1-(cyclobutylmethyl)-1H-pyrazol-4-yl]-1H-benzimidazol-2-yl}amino)pyridin-4-yl]ethyl}piperazin-1-yl)(cyclopropyl)methanone] | 0.88

Other lines, results leading:

Row | IC50 [nM] | Compound
14 | 1430 | CSc1ncc(-c2ccc3nc(Nc4cc(CN5CCN(C(=O)CC(F)(F)F)CC5)ccn4)[nH]c3c2)cn1 [Example 45.05.01, 3,3,3-trifluoro-1-(4-{[2-({6-[2-(methylsulfanyl)pyrimidin-5-yl]-1H-benzimidazol-2-yl}amino)pyridin-4-yl]methyl}piperazin-1-yl)propan-1-one]
15 | 62.5 | Cn1cc(-c2ccc3nc(Nc4cc(CN5CCN(C(=O)CC6CC6)CC5)ccn4)[nH]c3c2)cn1 [Example 37.02, 2-cyclopropyl-1-{4-[(2-{[6-(1-methyl-1H-pyrazol-4-yl)-1H-benzimidazol-2-yl]amino}pyridin-4-yl)methyl]piperazin-1-yl}ethanone]
16 | 29 | CC(=O)c1cc(-c2ccc3nc(Nc4cc(CN5CCN(C(=O)CC(F)(F)F)CC5)ccn4)[nH]c3c2)ncn1 [Example 97.03, 1-{4-[(2-{[6-(6-acetylpyrimidin-4-yl)-1H-benzimidazol-2-yl]amino}pyridin-4-yl)methyl]piperazin-1-yl}-3,3,3-trifluoropropan-1-one]
17 | 414 | O=C(C1CC1)N1CCN(Cc2ccnc(Nc3nc4ccc(-c5nc(C6CCCC6)no5)cc4[nH]3)c2)CC1 [Example 19.01, {4-[(2-{[6-(3-cyclopentyl-1,2,4-oxadiazol-5-yl)-1H-benzimidazol-2-yl]amino}pyridin-4-yl)methyl]piperazin-1-yl}(cyclopropyl)methanone]
18 | 496 | Cc1noc(-c2ccc3nc(Nc4cc(CN5CCN(C(=O)CC(F)(F)F)CC5(C)C)ccn4)[nH]c3c2)n1 [Example 16.04.02, 1-{3,3-dimethyl-4-[(2-{[6-(3-methyl-1,2,4-oxadiazol-5-yl)-1H-benzimidazol-2-yl]amino}pyridin-4-yl)methyl]piperazin-1-yl}-3,3,3-trifluoropropan-1-one]
19 | 2.98 | CCOc1nccc(-c2ccc3nc(Nc4cc(C(C)N5CCN(C(=O)CC(F)(F)F)CC5)ccn4)[nH]c3c2)n1 (single isomer, unassigned) [Example 26.03.01.A, 1-{4-[(1R or 1S)-1-(2-{[6-(2-ethoxypyrimidin-4-yl)-1H-benzimidazol-2-yl]amino}pyridin-4-yl)ethyl]piperazin-1-yl}-3,3,3-trifluoropropan-1-one]
20 | 7.67 | COc1cncnc1-c1ccc2nc(Nc3cc(C(C)N4CCN(C(=O)CC(F)(F)F)CC4)ccn3)[nH]c2c1 (racemic) [Example 35.02.01, (rac)-3,3,3-trifluoro-1-{4-[1-(2-{[6-(5-methoxypyrimidin-4-yl)-1H-benzimidazol-2-yl]amino}pyridin-4-yl)ethyl]piperazin-1-yl}propan-1-one]
21 | 11.6 | CC(c1ccnc(Nc2nc3ccc(-c4cnn(CC5CC(F)(F)C5)c4)cc3[nH]2)c1)N1CCN(C(=O)CC(F)(F)F)CC1 (single isomer, unassigned) [Example 169.02, 1-{4-[(1R or 1S)-1-{2-[(6-{1-[(3,3-difluorocyclobutyl)methyl]-1H-pyrazol-4-yl}-1H-benzimidazol-2-yl)amino]pyridin-4-yl}ethyl]piperazin-1-yl}-3,3,3-trifluoropropan-1-one]
22 | 150 | Cc1cc(-c2ccc3nc(Nc4cc(CN5CCN(C(=O)OC(C)(C)C)CC5)ccn4)[nH]c3c2)ccn1 [Example 01.01, tert-butyl 4-[(2-{[6-(2-methylpyridin-4-yl)-1H-benzimidazol-2-yl]amino}pyridin-4-yl)methyl]piperazine-1-carboxylate]
23 | 61.3 | O=C(C1CCC1)N1CCN(Cc2ccnc(Nc3nc4ccc(-c5nc(C6CC6)no5)cc4[nH]3)c2)CC1 [Example 17.06, cyclobutyl{4-[(2-{[6-(3-cyclopropyl-1,2,4-oxadiazol-5-yl)-1H-benzimidazol-2-yl]amino}pyridin-4-yl)methyl]piperazin-1-yl}methanone]
24 | 791 | CN(C)c1ccnc(-c2ccc3nc(Nc4cc(CN5CCN(C(=O)OC(C)(C)C)CC5)ccn4)[nH]c3c2)n1 [Example 181.01, tert-butyl 4-{[2-({6-[4-(dimethylamino)pyrimidin-2-yl]-1H-benzimidazol-2-yl}amino)pyridin-4-yl]methyl}piperazine-1-carboxylate]
25 | 52.2 | O=C(CC(F)(F)F)N1CCN(Cc2ccnc(Nc3nc4ccc(-c5ccncc5OCC(F)(F)F)cc4[nH]3)c2)CC1 [Example 05.01, 3,3,3-trifluoro-1-(4-{[2-({6-[3-(2,2,2-trifluoroethoxy)pyridin-4-yl]-1H-benzimidazol-2-yl}amino)pyridin-4-yl]methyl}piperazin-1-yl)propan-1-one]
26 | 180 | Cc1noc(-c2ccc3nc(Nc4cc(CN5CCN(C(=O)c6ccccc6)CC5)ccn4)[nH]c3c2)n1 [Example 101.10, {4-[(2-{[6-(3-methyl-1,2,4-oxadiazol-5-yl)-1H-benzimidazol-2-yl]amino}pyridin-4-yl)methyl]piperazin-1-yl}(phenyl)methanone]
